# Read-outs that look alike come from different tables or passages of the source.
# Assays:
# [1] = biological target: HIPK3 (Homo sapiens, UniProt Q9H422); test: Kinase screen: HIPK3 assay; format: biochemical; settings: read-out: Mean Remaining Enzyme Activity (%)
# Procedure: Generally, the same procedure was used for all assays. Since the total assay volume was 25.5 microliters, 0.5 microliters of inhibitors at 51× assay concentration were added to the plates before any other addition.
# The basic procedure was to add 0.5 microliters inhibitor/control in DMSO to plate. Fifteen microliters of enzyme/substrate/buffer mix were added and incubated for 5 min. Ten microliters MgATP at the relevant concentration were added and incubated for 30 min. The assay was stopped by adding 5 microliters of 3% orthophosphoric acid. The assay was transferred to a p81 filter plate and read in a scintillation counter of 30 sec/well. Note that this assay procedure was not followed for MKK1, which instead involved a two-step assay, and PKC alpha, which required the addition of lipid vesicles.
# HIPK3 assay: 5-20 mU of HIPK3 (diluted in 50 mM Tris (pH 7.5), 0.1 mM EGTA, 1 mg/ml BSA, 0.1%, b-Mercaptoethanol) was assayed against MBP in a final volume of 25.5 μl containing 50 mM Tris (pH 7.5), 0.1 mM EGTA, 0.1%, b-Mercaptoethanol, 0.33 mg/ml MBP, 10 mM magnesium acetate and 0.02 mM [33P-g-ATP] (500-1000 cpm/pmole) and incubated for 30 mins at room temperature. Assays were stopped by addition of 5 μl of 0.5M (3%) orthophosphoric acid. Assays were harvested onto P81 Unifilter plates using a wash buffer of 50 mM orthophosphoric acid.
# [2] = system: 786-0
# [3] = system: NCI/ADR-RES; test: cells; settings: Homo sapiens
# [4] = system: A498; test: cells; settings: Homo sapiens
# [5] = system: TK-10
# [6] = system: CAKI-1
# [7] = system: COLO 205
# [8] = system: SNB-19
# [9] = system: RXF 393
# [10] = system: SF-295
# [11] = system: SF-539
# [12] = system: HOP-62; test: cells; settings: Homo sapiens
# [13] = system: HL-60(TB); settings: for Mean Optical Densities / Percent Growth: HL-60(TB)
# [14] = system: PC-3; test: cells; settings: Homo sapiens
# [15] = 786-0, log10 concentration −4.0
# [16] = 786-0, log10 concentration −5.0
# [17] = 786-0, log10 concentration −6.0
# [18] = 786-0, log10 concentration −7.0
# [19] = 786-0, log10 concentration −8.0
# [20] = TK-10, log10 concentration −4.0
# [21] = TK-10, log10 concentration −5.0
# [22] = TK-10, log10 concentration −6.0
# [23] = TK-10, log10 concentration −7.0
# [24] = TK-10, log10 concentration −8.0
# [25] = CAKI-1, log10 concentration −4.0
# [26] = CAKI-1, log10 concentration −5.0
# [27] = CAKI-1, log10 concentration −6.0
# [28] = CAKI-1, log10 concentration −7.0
# [29] = CAKI-1, log10 concentration −8.0
# [30] = COLO 205, log10 concentration −4.0
# [31] = COLO 205, log10 concentration −5.0
# [32] = COLO 205, log10 concentration −6.0
# [33] = COLO 205, log10 concentration −7.0
# [34] = COLO 205, log10 concentration −8.0
# [35] = SNB-19, log10 concentration −4.0
# [36] = SNB-19, log10 concentration −5.0
# [37] = SNB-19, log10 concentration −6.0
# [38] = SNB-19, log10 concentration −7.0
# [39] = SNB-19, log10 concentration −8.0
# [40] = RXF 393, log10 concentration −4.0
# [41] = RXF 393, log10 concentration −5.0
# [42] = RXF 393, log10 concentration −6.0
# [43] = RXF 393, log10 concentration −7.0
# [44] = RXF 393, log10 concentration −8.0
# [45] = SF-295, log10 concentration −4.0
# [46] = SF-295, log10 concentration −5.0
# [47] = SF-295, log10 concentration −6.0
# [48] = SF-295, log10 concentration −7.0
# [49] = SF-295, log10 concentration −8.0
# [50] = SF-539, log10 concentration −4.0
# [51] = SF-539, log10 concentration −5.0
# [52] = SF-539, log10 concentration −6.0
# [53] = SF-539, log10 concentration −7.0
# [54] = SF-539, log10 concentration −8.0
# Chain of HIPK3 (Q9H422 whole entry, species assumed): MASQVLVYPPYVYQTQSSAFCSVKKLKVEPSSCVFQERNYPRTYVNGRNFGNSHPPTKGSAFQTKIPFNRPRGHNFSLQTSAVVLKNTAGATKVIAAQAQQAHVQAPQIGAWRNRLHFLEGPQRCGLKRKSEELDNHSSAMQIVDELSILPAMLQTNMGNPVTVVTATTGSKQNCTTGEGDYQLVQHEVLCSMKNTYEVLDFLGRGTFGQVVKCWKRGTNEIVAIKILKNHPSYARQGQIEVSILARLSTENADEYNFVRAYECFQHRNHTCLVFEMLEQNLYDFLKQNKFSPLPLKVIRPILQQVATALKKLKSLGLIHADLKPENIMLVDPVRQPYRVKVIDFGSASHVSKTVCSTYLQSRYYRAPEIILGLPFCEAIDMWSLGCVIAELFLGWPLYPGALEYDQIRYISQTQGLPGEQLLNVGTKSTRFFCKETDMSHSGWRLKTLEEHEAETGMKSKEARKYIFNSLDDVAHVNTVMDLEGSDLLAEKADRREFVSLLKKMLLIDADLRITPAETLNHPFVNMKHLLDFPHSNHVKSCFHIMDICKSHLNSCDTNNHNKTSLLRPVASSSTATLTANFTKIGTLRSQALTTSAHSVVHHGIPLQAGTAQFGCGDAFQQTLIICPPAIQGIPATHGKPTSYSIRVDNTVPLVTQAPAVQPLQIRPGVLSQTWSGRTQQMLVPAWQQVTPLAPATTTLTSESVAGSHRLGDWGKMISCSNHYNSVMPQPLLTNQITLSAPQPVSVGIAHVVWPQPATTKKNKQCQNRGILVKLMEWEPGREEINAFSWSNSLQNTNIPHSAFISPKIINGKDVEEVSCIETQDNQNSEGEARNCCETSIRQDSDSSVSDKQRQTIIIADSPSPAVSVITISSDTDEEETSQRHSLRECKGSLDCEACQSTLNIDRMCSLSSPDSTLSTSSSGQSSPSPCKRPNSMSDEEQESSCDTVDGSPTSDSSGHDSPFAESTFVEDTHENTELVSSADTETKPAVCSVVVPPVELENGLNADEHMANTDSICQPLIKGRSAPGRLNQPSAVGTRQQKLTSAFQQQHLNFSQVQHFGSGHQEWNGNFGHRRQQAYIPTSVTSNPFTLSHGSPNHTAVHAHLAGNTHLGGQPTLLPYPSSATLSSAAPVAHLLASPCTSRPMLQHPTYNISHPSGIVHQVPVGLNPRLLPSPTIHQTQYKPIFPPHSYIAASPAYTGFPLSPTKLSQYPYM
smiles,measurement,setting,value
CC(C)c1cnn2c(NCc3ccccc3)cc(NCCCCCCCN)nc12 [BS-181],remaining activity at 10 µM,[1],90%
"CC(C)c1cnn2c(NCc3ccccc3)cc(N[C@@H](CO)[C@H](O)CO)nc12 [ICEC0318, (3S)-3-(7-(Benzylamino)-3-isopropylpyrazolo[1,5-a]pyrimidin-5-ylamino)butane-1,2,4-triol]",TGI,[2]; 786-0 (Renal Cancer),8.99E−7
same,Mean Optical Densities,[2]; [15],0.491
same,Percent Growth,[2]; [15],−21%
same,Mean Optical Densities,[2]; [16],0.598
same,Percent Growth,[2]; [16],−4%
same,Mean Optical Densities,[2]; [17],0.592
same,Percent Growth,[2]; [17],−5%
same,Mean Optical Densities,[2]; [18],1.769
same,Percent Growth,[2]; [18],98%
same,Mean Optical Densities,[2]; [19],1.824
same,Percent Growth,[2]; [19],103%
same,GI50,"[2]; Homo sapiens, 786-0",293 nM
same,CC50,"[2]; Homo sapiens, 786-0, read-out: LC50",> 100000 nM
same,GI50,[3],2040 nM
same,CC50,[3]; read-out: LC50,> 100000 nM
same,GI50,[4]; A498,235 nM
same,CC50,"[4]; A498, read-out: LC50",993 nM
same,TGI,[5]; TK-10 (Renal Cancer),>1.00E−4
same,Mean Optical Densities,[5]; [20],0.610
same,Percent Growth,[5]; [20],18%
same,Mean Optical Densities,[5]; [21],0.593
same,Percent Growth,[5]; [21],15%
same,Mean Optical Densities,[5]; [22],0.572
same,Percent Growth,[5]; [22],12%
same,Mean Optical Densities,[5]; [23],1.192
same,Percent Growth,[5]; [23],101%
same,Mean Optical Densities,[5]; [24],1.202
same,Percent Growth,[5]; [24],103%
same,TGI,[6]; CAKI-1 (Renal Cancer),>1.00E−4
same,Mean Optical Densities,[6]; [25],0.358
same,Percent Growth,[6]; [25],2%
same,Mean Optical Densities,[6]; [26],0.372
same,Percent Growth,[6]; [26],5%
same,Mean Optical Densities,[6]; [27],0.423
same,Percent Growth,[6]; [27],18%
same,Mean Optical Densities,[6]; [28],0.631
same,Percent Growth,[6]; [28],71%
same,Mean Optical Densities,[6]; [29],0.704
same,Percent Growth,[6]; [29],90%
same,TGI,[7]; COLO 205 (Colon Cancer),3.82E−7
same,Mean Optical Densities,[7]; [30],0.030
same,Percent Growth,[7]; [30],−77%
same,Mean Optical Densities,[7]; [31],0.050
same,Percent Growth,[7]; [31],−62%
same,Mean Optical Densities,[7]; [32],0.065
same,Percent Growth,[7]; [32],−50%
same,Mean Optical Densities,[7]; [33],0.372
same,Percent Growth,[7]; [33],70%
same,Mean Optical Densities,[7]; [34],0.499
same,Percent Growth,[7]; [34],107%
same,TGI,[8]; SNB-19 (CNS Cancer),4.89E−5
same,Mean Optical Densities,[8]; [35],0.492
same,Percent Growth,[8]; [35],−2%
same,Mean Optical Densities,[8]; [36],0.537
same,Percent Growth,[8]; [36],4%
same,Mean Optical Densities,[8]; [37],0.580
same,Percent Growth,[8]; [37],9%
same,Mean Optical Densities,[8]; [38],1.247
same,Percent Growth,[8]; [38],84%
same,Mean Optical Densities,[8]; [39],1.309
same,Percent Growth,[8]; [39],91%
same,TGI,[9]; RXF 393 (Renal Cancer),5.27E−7
same,Mean Optical Densities,[9]; [40],0.239
same,Percent Growth,[9]; [40],−54%
same,Mean Optical Densities,[9]; [41],0.308
same,Percent Growth,[9]; [41],−40%
same,Mean Optical Densities,[9]; [42],0.333
same,Percent Growth,[9]; [42],−35%
same,Mean Optical Densities,[9]; [43],0.928
same,Percent Growth,[9]; [43],92%
same,Mean Optical Densities,[9]; [44],0.980
same,Percent Growth,[9]; [44],103%
same,TGI,[10]; SF-295 (CNS Cancer),3.10E−5
same,Mean Optical Densities,[10]; [45],0.371
same,Percent Growth,[10]; [45],−4%
same,Mean Optical Densities,[10]; [46],0.427
same,Percent Growth,[10]; [46],4%
same,Mean Optical Densities,[10]; [47],0.447
same,Percent Growth,[10]; [47],6%
same,Mean Optical Densities,[10]; [48],1.288
same,Percent Growth,[10]; [48],83%
same,Mean Optical Densities,[10]; [49],1.492
same,Percent Growth,[10]; [49],101%
same,TGI,[11]; SF-539 (CNS Cancer),5.81E−7
same,Mean Optical Densities,[11]; [50],0.138
same,Percent Growth,[11]; [50],−81%
same,Mean Optical Densities,[11]; [51],0.327
same,Percent Growth,[11]; [51],−55%
same,Mean Optical Densities,[11]; [52],0.540
same,Percent Growth,[11]; [52],−25%
same,Mean Optical Densities,[11]; [53],1.950
same,Percent Growth,[11]; [53],82%
same,Mean Optical Densities,[11]; [54],2.183
same,Percent Growth,[11]; [54],98%
same,GI50,[12]; HOP-62,243 nM
same,CC50,"[12]; HOP-62, read-out: LC50",> 100000 nM
same,TGI,[13]; HL-60(TB) (Leukemia),6.07E−7
same,Mean Optical Densities,[13]; log10 concentration −4.0,0.495
same,Percent Growth,[13]; log10 concentration −4.0,−2%
same,Mean Optical Densities,[13]; log10 concentration −5.0,0.484
same,Percent Growth,[13]; log10 concentration −5.0,−4%
same,Mean Optical Densities,[13]; log10 concentration −6.0,0.407
same,Percent Growth,[13]; log10 concentration −6.0,−19%
same,Mean Optical Densities,[13]; log10 concentration −7.0,0.932
same,Percent Growth,[13]; log10 concentration −7.0,69%
same,Mean Optical Densities,[13]; log10 concentration −8.0,1.084
same,Percent Growth,[13]; log10 concentration −8.0,94%
same,GI50,[14]; PC-3,314 nM
same,CC50,"[14]; PC-3, read-out: LC50",> 100000 nM

# — patent US8067424B2, “Selective inhibitors for cyclin-dependent kinases” (Emory University, priority 2007, dated 2011)
